Literature values, collected in US20070116643A1, “Novel aryloxypropanamines” (Concert Pharmaceuticals Inc., priority 2005, published 2007).
Structures can show the parent of a compound that is named as a salt.

Tests used:
[1] = tested on: 5-HT reuptake; details: rodent models
[2] = tested on: central monoamine receptors
[3] = tested on: 5-HT reuptake; details: in humans
[4] = tested on: NE reuptake; details: in humans

Q: Which results are given for `CNCC[C@H](Oc1cccc2ccccc12)c1cccs1` [Compound A, (S)-N-methyl-3-(naphthalen-1-yloxy)-3-(thiophen-2-yl)propan-1-amine hydrochloride]?
A: inhibition of neural cell firing / 5-HT reuptake [1]: inhibiting neural cell firing by reducing reuptake of 5-HT; affinity for central monoamine receptors [2]: lacks affinity for central monoamine receptors; inhibition of 5-HT reuptake [3]: recapitulates the preclinically observed inhibition of 5-HT and NE reuptake; inhibition of NE reuptake [4]: recapitulates the preclinically observed inhibition of 5-HT and NE reuptake; circulating radioactivity attributable to parent drug, AUC basis (humans, radiolabeled Compound A): approximately 3%; extent of metabolism (oral administration to humans, predominantly oxidative mechanisms): rapidly and extensively metabolized
